ChEMBL document CHEMBL4265986, “Structural exploration of cinnamate-based phosphonic acids as inhibitors of bacterial ureases” (Eur J Med Chem, 2018)
pIC50, pKi: −log10 of the molar value.

What was measured:
Proteus mirabilis = experiment: Antimicrobial activity against Proteus mirabilis PCM543 assessed as inhibition of microbial proliferation preincubated for 2 hrs by MTT assay; assay type: functional
[1] = Mixed type inhibition of Sporosarcina pasteurii CCM 2056 urease using urea as substrate preincubated for 2 hrs by indophenol blue detection based phenol-hypochlorite method
[2] = Inhibition of Proteus mirabilis PCM543 urease using urea as substrate preincubated for 2 hrs by indophenol blue detection based phenol-hypochlorite method
[3] = Inhibition of Sporosarcina pasteurii CCM 2056 urease using urea as substrate preincubated for 2 hrs by indophenol blue detection based phenol-hypochlorite method
[4] = Inhibition of Sporosarcina pasteurii CCM 2056 urease using urea as substrate after 10 mins by indophenol blue detection based phenol-hypochlorite method
Sporosarcina pasteurii [5] = experiment: Slow binding inhibition of Sporosarcina pasteurii CCM 2056 urease assessed as dissociation rate constant using urea as substrate after 120 mins by indophenol blue detection based phenol-hypochlorite method
Sporosarcina pasteurii [6] = experiment: Slow binding inhibition of Sporosarcina pasteurii CCM 2056 urease assessed as residence time using urea as substrate after 120 mins by indophenol blue detection based phenol-hypochlorite method

`COC(=O)/C(=C/c1ccc(Cl)cc1)CCCP(=O)(O)O` showed an LC50 (Proteus mirabilis) of 89.6 µM, a pKi [1] of 4.37 and a pIC50 [2] of 3.28. It also gave a pIC50 [3] of 4.30 and a pIC50 [4] of 3.96.

`COC(=O)/C(=C/c1ccccc1)CCCCP(=O)(O)O` showed an LC50 (Proteus mirabilis) of 469 µM, a pKi [1] of 4.30 and a pIC50 [2] of 3.32. For the same compound, the pIC50 [3] was 4.27 and the pIC50 [4] was 4.26.

With `O=C(O)/C(=C/c1ccc(F)cc1)CCCCP(=O)(O)O` the K (Sporosarcina pasteurii [5]) was 0.00135 s⁻¹, the LC50 (Proteus mirabilis) was 192 µM and the pKi [1] was 5.59. The pIC50 [2] was 4.85, the TIME (Sporosarcina pasteurii [6]) was 0.206 h and the pIC50 [3] was 5.54. For the same compound, the pIC50 [4] was 5.00.

Work on `COC(=O)/C(=C/c1ccc(C)cc1)CCCP(=O)(O)O` yielded an LC50 (Proteus mirabilis) of 292 µM, a pKi [1] of 3.64 and a pIC50 [2] of 2.84. For the same compound, the pIC50 [3] was 3.61 and the pIC50 [4] was 3.58.

With `COC(=O)/C(=C/c1ccc(F)cc1)CCCP(=O)(O)O` the LC50 (Proteus mirabilis) was 215 µM, the pKi [1] was 4.06 and the pIC50 [2] was 3.13. The pIC50 [3] was 3.98 and the pIC50 [4] was 3.66.

In the case of `COC(=O)/C(=C/c1ccc(OC)cc1)CCCCP(=O)(O)O`, the LC50 (Proteus mirabilis) was 160 µM, the pKi [1] was 4.67 and the pIC50 [2] was 3.79. The pIC50 [3] was 4.65 and the pIC50 [4] was 4.61.

Compound `COC(=O)/C(=C/c1ccc(F)cc1)CCCCP(=O)(O)O` has an LC50 (Proteus mirabilis) of 1060 µM, a pKi [1] of 3.94 and a pIC50 [2] of 3.20. For the same compound, the pIC50 [3] was 3.89 and the pIC50 [4] was 3.79.

With `COC(=O)/C(=C/c1ccc(C)cc1)CCCCP(=O)(O)O` the LC50 (Proteus mirabilis) was 659 µM, the pKi [1] was 3.66 and the pIC50 [2] was 2.81. The pIC50 [3] was 3.58 and the pIC50 [4] was 3.53.

`COC(=O)/C(=C/c1ccc(Cl)cc1)CCCCP(=O)(O)O` showed a K (Sporosarcina pasteurii [5]) of 0.00206 s⁻¹, an LC50 (Proteus mirabilis) of 638 µM and a pKi [1] of 5.33. For the same compound, the pIC50 [2] was 4.56, the TIME (Sporosarcina pasteurii [6]) was 0.135 h and the pIC50 [3] was 5.20. It also gave a pIC50 [4] of 4.23.

Compound `COC(=O)/C(=C/c1ccccc1)CCCP(=O)(O)O` has an LC50 (Proteus mirabilis) of 556 µM, a pKi [1] of 3.54 and a pIC50 [2] of 2.80. For the same compound, the pIC50 [3] was 3.48 and the pIC50 [4] was 3.35.

`O=C(O)/C(=C/c1ccccc1)CCCCP(=O)(O)O` gave an LC50 (Proteus mirabilis) of 97.6 µM, a pKi [1] of 5.45 and a pIC50 [2] of 4.49. The pIC50 [3] was 5.42 and the pIC50 [4] was 5.31.

For `COC(=O)/C(=C/c1ccc(OC)cc1)CCCP(=O)(O)O`, the K (Sporosarcina pasteurii [5]) was 0.00244 s⁻¹, the LC50 (Proteus mirabilis) was 236 µM and the pKi [1] was 5.22. For the same compound, the pIC50 [2] was 4.12, the TIME (Sporosarcina pasteurii [6]) was 0.114 h and the pIC50 [3] was 4.97. It also gave a pIC50 [4] of 4.45.

For `O=C(O)/C(=C/c1ccc(Cl)cc1)CCCCP(=O)(O)O`, the LC50 (Proteus mirabilis) was 435 µM, the pKi [1] was 5.76 and the pIC50 [2] was 4.65. The pIC50 [3] was 5.63 and the pIC50 [4] was 5.23.

With `O=C(O)/C(=C/c1ccccc1)CCCP(=O)(O)O` the K (Sporosarcina pasteurii [5]) was 0.000682 s⁻¹, the LC50 (Proteus mirabilis) was 135 µM and the pKi [1] was 6.29. The pIC50 [2] was 4.96, the TIME (Sporosarcina pasteurii [6]) was 0.407 h and the pIC50 [3] was 6.13. The pIC50 [4] was 5.51.

In the case of `O=C(O)/C(=C/c1ccc(Cl)cc1)CCCP(=O)(O)O`, the LC50 (Proteus mirabilis) was 122 µM, the pKi [1] was 5.84 and the pIC50 [2] was 4.73. It also gave a pIC50 [3] of 5.79 and a pIC50 [4] of 5.60.

`O=C(O)/C(=C/c1ccc(F)cc1)CCCP(=O)(O)O` showed an LC50 (Proteus mirabilis) of 121 µM, a pKi [1] of 5.74 and a pIC50 [2] of 4.42. It also gave a pIC50 [3] of 5.42 and a pIC50 [4] of 5.31.

`Cc1ccc(/C=C(\CCCP(=O)(O)O)C(=O)O)cc1` showed an LC50 (Proteus mirabilis) of 139 µM, a pKi [1] of 4.71 and a pIC50 [2] of 3.81. It also gave a pIC50 [3] of 4.61 and a pIC50 [4] of 4.52.

In the case of `Cc1ccc(/C=C(\CCCCP(=O)(O)O)C(=O)O)cc1`, the LC50 (Proteus mirabilis) was 49.8 µM, the pKi [1] was 5.14 and the pIC50 [2] was 4.28. The pIC50 [3] was 5.07 and the pIC50 [4] was 5.03.

Work on `COc1ccc(/C=C(\CCCCP(=O)(O)O)C(=O)O)cc1` yielded an LC50 (Proteus mirabilis) of 28.6 µM, a pKi [1] of 5.03 and a pIC50 [2] of 3.94. The pIC50 [3] was 4.84 and the pIC50 [4] was 4.78.

Compound `COc1ccc(/C=C(\CCCP(=O)(O)O)C(=O)O)cc1` has an LC50 (Proteus mirabilis) of 65.2 µM, a pKi [1] of 5.47 and a pIC50 [2] of 4.40. For the same compound, the pIC50 [3] was 5.30 and the pIC50 [4] was 5.00.
